Reference: patent US10966994B2, “Thromboxane receptor antagonists” (ATXA THERAPEUTICS LIMITED, priority 2015, dated 2021)

Experiments:
human platelets = assay: U46619-mediated platelet aggregation ex vivo (PAP-8E aggregometer); format: cell-based; details: for IC50: Platelet, human PRP, 10 min pre-incubation, 1 μM U46619, estimated IC50, read-out: IC50 values for Inhibition of U46619-Mediated Platelet Aggregation
Procedure: In order to evaluate NTP42-NTP49 in a second independent assay, the effect of the compounds on U46619-mediated platelet aggregation assays was examined. Clearly, from an efficacy point of view, this is an important assay and, physiologically, the more relevant with respect to the therapeutic target.
The compounds were tested in side-by-side assays with the previously identified key lead compound TP20 using the PAP-8E platelet aggregometer.
(§1) PRP was prepared from blood taken from healthy volunteers into syringes containing 3.8% sodium citrate and 10 μM indomethacin such that the final ratio of anticoagulant to blood was 1:9. Aliquots of PRP (300 μl) were pre-incubated for 10 min with the TP antagonists, TP20, NTP42, NTP43, NTP44, NTP45, NTP47, NTP48 and NTP49, where 2-fold serial dilutions from 0.25 μM was prepared for each, prior to stimulating platelets with 1 μM U46619, incubated at 37° C., with stirring. The results are presented as Percentage Aggregation (mean±S.E.M.), as determined by changes in light transmission over time using the PAP-8E Platelet Aggregation Profiler and represents data from 4 independent experiments (n=4).
as §1, with “TP20, NTP4,” for “TP20,”, “NTP42, NTP43” for “NTP42, NTP43, NTP44, NTP45, NTP47, NTP48”, “and NTP48,” for “and NTP49,”, “from 1” for “from 0.25”, “from at least 3” for “from 4”, “experiments (n≥3).” for “experiments (n=4).”

Cell permeability = format: in vitro ADME
IP receptor = IP receptor (Homo sapiens, UniProt P43119); assay: Specificity testing, IP receptor signaling; format: cell-based
Procedure: There is no or minimal inhibition of the majority of the non-TP-mediated signaling observed in the presence of either NTP42 & NTP48. Where there is inhibition of signaling, it is observed at the 10 μM concentration only. […] Compared to NTP42, NTP48 has less of an effect on the signaling of the non-TP prostanoid receptors and therefore, may be considered more favorable in this context.

TPβ = biological target: T1, TPβ (Homo sapiens, UniProt P21731); assay: U46619-mediated calcium mobilization in HEK.TPβ cells; format: cell-based; details: for IC50: 1 μM U46619, estimated IC50, mean ± S.E.M., read-out: IC50 values for Inhibition of U46619-Mediated [Ca2+]i Mobilisation, TPβ; for inhibition of U46619-mediated calcium mobilization, TPβ (in words): 1 μM U46619
T1 construct: expressed in transfected cells; host or cells: HEK 293 (HEK.TPβ, isolate EM #8)
Procedure: (§2) NTP42-NTP49, northern group variants of NTP4, were assessed through calcium mobilization assays using proprietary HEK 293 cells over-expressing the thromboxane (TX)A2 receptor, α (TPα) and β (TPβ) isoforms, referred to as HEK.TPα and HEK.TPβ cells, respectively. The initial screening involved dose-responses assays (concentrations used 0.0001 (TPβ only), 0.001, 0.1, 1 & 10 μM; (TPα and TPβ)) followed by more focused, full dose response assays (concentration range: 0.00001 to 10 μM) for determination of IC50 values where the effect of the compounds on calcium mobilized in response to the TXA2 mimetic U46619 (1 μM) were performed in side-by-side comparison with the key lead compounds TP20 and NTP4.
(§3) As stated, NTP42-NTP49 were screened through calcium mobilization assays using HEK.TPα and HEK.TPβ cells over-expressing the thromboxane (TX)A2 receptor, α (TPα) and β (TPβ) isoforms, respectively. The initial screening involved dose-response assays where the compounds, used at 0.0001 (TPβ only), 0.001, 0.1, 1 & 10 μM (TPα and TPβ), were assessed for their ability to inhibit the TXA2 mimetic U46619 (1 μM). The compounds were tested in side-by-side assays with the previously identified key lead compounds TP20 and NTP4.
(§4) HEK.TPβ (EM #8) cells, preloaded with Fluo-4, were incubated with the TP20, NTP4, NTP42, NTP43, NTP44, NTP45, NTP47, NTP48 & NTP49 where each antagonist was used at 0.0001, 0.001, 0.1, 1 & to 10 μM, as indicated, prior to stimulation with 1 μM U46619. Data is presented as the mean (±S.E.M.) percentage of the agonist-induced response in vehicle-treated cells (Percentage of Control; %) and represents data from at least 4 independent experiments were cells were treated in duplicate.
as §4, with “NTP43 and” for “NTP43, NTP44, NTP45, NTP47,”, “NTP48” for “NTP48 & NTP49”, “0.00001-10” for “0.0001, 0.001, 0.1, 1 & to 10”

TPα = biological target: T2, TPα (Homo sapiens, UniProt P21731); assay: U46619-mediated calcium mobilization in HEK.TPα cells; format: cell-based; details: for IC50: 1 μM U46619, estimated IC50, mean ± S.E.M., read-out: IC50 values for Inhibition of U46619-Mediated [Ca2+]i Mobilisation, TPα; for inhibition of U46619-mediated calcium mobilization, TPα (in words): 1 μM U46619
T2 construct: expressed in transfected cells; host or cells: HEK 293 (HEK.TPα, isolate HR #4)
T2 sequence (P21731 1-343): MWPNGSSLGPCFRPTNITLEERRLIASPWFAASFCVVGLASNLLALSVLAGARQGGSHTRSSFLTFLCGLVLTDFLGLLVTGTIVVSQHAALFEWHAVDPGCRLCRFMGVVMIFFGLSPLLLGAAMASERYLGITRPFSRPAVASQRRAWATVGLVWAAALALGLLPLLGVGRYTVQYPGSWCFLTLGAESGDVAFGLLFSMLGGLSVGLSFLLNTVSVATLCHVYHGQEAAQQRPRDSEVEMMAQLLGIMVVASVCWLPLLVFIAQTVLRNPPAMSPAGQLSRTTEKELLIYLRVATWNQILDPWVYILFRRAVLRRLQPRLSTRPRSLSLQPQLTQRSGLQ
Procedure: as §2, §3
as §4, with “HEK.TPα (HR #4)” for “HEK.TPβ (EM #8)”, “at” for “at 0.0001,”
HEK.TPα (HR #4) cells, preloaded with Fluo-4, were incubated with the TP20, NTP4, NTP42, NTP43 and NTP48 where each antagonist was used at 0.00001-10 μM, as indicated, prior to stimulation with 1 μM U46619. Data is presented as the mean (±S.E.M.) percentage of the agonist induced response in vehicle-treated cells (Percentage of Control; %) and represents data from at least 3 independent experiments were cells were treated in duplicate.

IP receptor, sequence (P43119 whole entry): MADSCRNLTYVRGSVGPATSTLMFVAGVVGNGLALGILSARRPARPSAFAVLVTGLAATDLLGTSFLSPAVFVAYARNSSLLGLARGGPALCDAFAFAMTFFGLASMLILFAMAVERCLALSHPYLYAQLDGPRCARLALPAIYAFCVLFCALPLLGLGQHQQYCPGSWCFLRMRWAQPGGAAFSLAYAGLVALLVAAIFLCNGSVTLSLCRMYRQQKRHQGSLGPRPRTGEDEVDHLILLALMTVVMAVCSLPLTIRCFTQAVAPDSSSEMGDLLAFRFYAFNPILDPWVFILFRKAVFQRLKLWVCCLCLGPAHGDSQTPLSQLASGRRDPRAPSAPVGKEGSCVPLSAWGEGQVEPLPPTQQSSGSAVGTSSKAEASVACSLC
T1 sequence (P21731 1-407 isoform P21731-2): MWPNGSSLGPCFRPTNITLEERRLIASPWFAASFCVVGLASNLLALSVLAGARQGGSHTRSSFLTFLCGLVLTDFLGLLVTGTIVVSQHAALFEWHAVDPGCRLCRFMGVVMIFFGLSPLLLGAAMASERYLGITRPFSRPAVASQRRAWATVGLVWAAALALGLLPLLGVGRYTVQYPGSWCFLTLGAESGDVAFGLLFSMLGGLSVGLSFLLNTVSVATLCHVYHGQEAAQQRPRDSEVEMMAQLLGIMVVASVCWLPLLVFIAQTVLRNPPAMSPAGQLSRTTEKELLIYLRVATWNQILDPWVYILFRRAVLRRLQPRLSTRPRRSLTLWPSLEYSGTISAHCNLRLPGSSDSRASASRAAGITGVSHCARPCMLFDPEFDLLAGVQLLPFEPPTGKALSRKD

Row | IC50 (human platelets) [nM] | cell permeability (Cell permeability) | IC50 (TPβ) [nM] | Compound | effect on the IP receptor (IP receptor) | percentage reduction in responses, IP (IP receptor; maximal inhibition, at 10 μM only) [%] | IC50 (TPα) [nM] | inhibition of U46619-mediated calcium mobilization, TPβ (in words) (TPβ) | inhibition of U46619-mediated calcium mobilization, TPα (in words) (TPα) | inhibition of U46619-mediated aggregation of human platelet ex vivo (in words) (human platelets; 1 μM U46619)
1 | 22 ± 2.03 | favorable cell permeability | 18.4 ± 1.63 | CC(C)(C)NC(=O)NS(=O)(=O)c1cc(C#N)ccc1Oc1cccc(-c2ccc(OC(F)(F)F)cc2)c1 [NTP43] | not to exhibit any effect |  | 105 ± 7.95 |  |  | 
2 | 9.45 ± 1.38 | favorable cell permeability | 5.06 ± 1.5 | CN(C)C(=O)c1ccc(-c2cccc(Oc3ccc(C#N)cc3S(=O)(=O)NC(=O)NC(C)(C)C)c2)cc1 [NTP48, 4-[3-[2-(tert-Butylcarbamoylsulfamoyl)-4-cyano-phenoxy]phenyl]-N,N-dimethyl-benzamide] | no effect |  | 90.1 ± 6.43 |  |  | 
3 | 21.3 ± 1.01 |  |  | COc1ccc(-c2cccc(Oc3ccc(C#N)cc3S(=O)(=O)NC(=O)NC(C)(C)C)c2)cc1 [NTP4, reference compound] | like TP20 and NTP4, neither NTP42, NTP43 nor NTP48 exhibited any effect |  |  | potently inhibited | potently inhibited | 

The remaining lines, values behind:

Row | Compound | IC50 (human platelets) [nM] | cell permeability (Cell permeability) | IC50 (TPβ) [nM] | effect on the IP receptor (IP receptor) | percentage reduction in responses, IP (IP receptor; maximal inhibition, at 10 μM only) [%] | IC50 (TPα) [nM] | inhibition of U46619-mediated calcium mobilization, TPβ (in words) (TPβ) | inhibition of U46619-mediated calcium mobilization, TPα (in words) (TPα) | inhibition of U46619-mediated aggregation of human platelet ex vivo (in words) (human platelets; 1 μM U46619)
4 | CC(C)(C)NC(=O)NS(=O)(=O)c1cc(C#N)ccc1Oc1cccc(-c2ccc(OC(F)F)cc2)c1 [NTP42] | 10.1 ± 1.07 | favorable cell permeability | 8.25 ± 0.73 | no effect | 50 | 56.2 ± 4.84 |  |  | 
5 | COc1ccc(-c2cccc(Oc3ccc([N+](=O)[O-])cc3S(=O)(=O)NC(=O)NC(C)(C)C)c2)cc1 [TP20, reference compound] | 4.62 ± 0.72 |  |  | like TP20 and NTP4, neither NTP42, NTP43 nor NTP48 exhibited any effect |  | 125 ± 11.4 | potently inhibited | potently inhibited | potently inhibit
